# “Also recorded” adds a separate entry of the source.
# Target: T1, pendrin (slc26a4) (Mus musculus, UniProt Q9R155)
# T1 construct: expressed in transfected cells; host or cells: FRT cells expressing YFP and slc26a4
# T1 sequence (Q9R155 1-780): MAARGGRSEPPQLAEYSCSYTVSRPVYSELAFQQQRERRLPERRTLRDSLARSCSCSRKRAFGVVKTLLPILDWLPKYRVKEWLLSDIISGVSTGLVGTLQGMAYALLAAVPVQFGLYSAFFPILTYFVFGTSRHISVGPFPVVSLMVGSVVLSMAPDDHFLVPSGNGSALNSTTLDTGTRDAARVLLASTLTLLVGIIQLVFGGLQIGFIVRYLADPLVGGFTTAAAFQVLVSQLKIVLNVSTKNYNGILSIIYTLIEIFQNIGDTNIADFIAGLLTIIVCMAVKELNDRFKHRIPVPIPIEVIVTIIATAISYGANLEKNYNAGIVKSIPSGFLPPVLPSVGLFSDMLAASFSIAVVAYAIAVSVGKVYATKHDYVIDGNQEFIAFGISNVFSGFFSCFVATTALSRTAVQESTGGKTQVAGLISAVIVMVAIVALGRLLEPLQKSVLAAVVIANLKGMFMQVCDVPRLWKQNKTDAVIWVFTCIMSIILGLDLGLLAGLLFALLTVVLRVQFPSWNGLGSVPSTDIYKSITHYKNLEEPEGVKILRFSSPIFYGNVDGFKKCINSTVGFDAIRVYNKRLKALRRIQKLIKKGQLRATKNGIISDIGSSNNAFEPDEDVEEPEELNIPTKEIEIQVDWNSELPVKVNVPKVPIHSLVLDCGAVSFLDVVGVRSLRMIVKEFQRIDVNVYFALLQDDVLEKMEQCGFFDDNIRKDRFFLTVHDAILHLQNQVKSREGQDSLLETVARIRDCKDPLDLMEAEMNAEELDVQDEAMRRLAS
# Assay: Selectivity: pendrin-mediated Cl-/I- exchange, YFP assay
# Type: cell-based, murine
# Conditions: 10 µM
# From the text: To investigate Compound A1 selectivity, transport assays were done on a panel of SLC26-family homologs, and other relevant epithelial ion transporters and channels. […] In separate studies, to investigate possible action of Compound A1 on multiple ion transporters and channels in a human epithelium, human bronchial epithelial (HBE) cells were studied by short-circuit current, with successive additions of amiloride (to block the epithelial sodium channel ENaC), forskolin, CFTRinh-172 (to block CFTR), and ATP (to activate the Ca^2+-activated chloride channel, CaCC) (FIG. 5C).
# YFP-based assays of CFTR, pendrin and TMEM16A were as described. HEK cells transfected to express YFP and SLC26A3, slc26a6 or slc26a9 were functionally assayed using a Cl^-/I^- exchange protocol. Assays of Cl^-/HCO3^- exchange were done using BCECF as an intracellular pH indicator as described for pendrin. […]
# HEK293 cells transfected with pIRES-YFP-slc26a9 were plated in 96-well black-walled, clear-bottom tissue culture plates (Corning Life Sciences, Tewksbury, MA) after coating with FNC Coating Mix (AthenaES, Baltimore, MD). […] Assays of slc26a9-mediated anion exchange were done by initially recording YFP fluorescence prior to addition of 100 µL of NaI-substituted PBS to test wells, with the initial rate of Cl^-/I^- exchange deduced from fluorescence intensity by single exponential regression. […]
smiles,measurement,value
Cc1c(CC(=O)O)c(=O)oc2c(C)c(OCc3cccc(Br)c3)ccc12 [Compound A1],effect on Cl-/I- exchange activity of pendrin (slc26a4),did not alter; also recorded: did not inhibit; also recorded: differences not significant

# Reference: US20230339878A1, “SLC26A3 INHIBITORS AND USE THEREOF” (THE REGENTS OF THE UNIVERSITY OF CALIFORNIA, priority 2018, published 2023)
